# Values joined by “and” are separate entries in the source; they are usually repeats but may differ in a detail not shown here. Equal values may be shown once. Read-outs that look alike come from different tables or passages of the source.
# Key:
# Format in all cases: cell-based
# [1] = test system: GluATCV (GluA1/KcvATCV-1 chimera); test: Two-electrode voltage clamp of GluATCV expressing Xenopus oocytes
# From the text: (§1) The GluATCV constructs were generated by replacing the nucleotide sequence encoding amino acids 538–629 (GluATCVlong), 634 (GluATCV short) and 642 (GluATCV) of the mature GluA1 by the KcvATCV-1 sequence with the use of XhoI and NheI. The GluATCV^ΔNTD and GluATCV^ΔM4 constructs were generated by excising the nucleotide sequence encoding amino acids 19–394 and upstream of 784 of the mature GluA1 by deletion PCR, respectively. All constructs were confirmed by DNA sequencing (Seqlab, Göttingen, Germany).
# (§2) cRNAs were synthesized by using the AmpliCap-Max™ T7 High Yield Message Maker Kit of Cellscript (Madison, Wi, USA) with the plasmid linearized by AatII. X. laevis oocytes were used for two electrode voltage-clamp (TEVC) electrophysiology as previously described. Oozytes were surgically obtained from female X. laevis after anesthesia with 0.1% Tricaine in water under the approval of the Technical University of Darmstadt (Agreement V54-19c20/15 DA8/Anz. 20). After the harvest, oocytes were incubated for 1 h in 0.8 mg collagenase in frog ringer [96 mM NaCl, 2 mM KCl, 1 mM CaCl2,1 mM MgCl2, and 5 mM HEPES (pH 7.4 with NaOH)][53]. After the treatment and a washing step with Ca^2+ free ringer [96 mM NaCl, 2 mM KCl,1 mM MgCl2, and 5 mM HEPES (pH 7.4 with NaOH)] oocytes of stage V and VI were selected and defolliculated by pipetting with a burned glass-Pasteur-pipette. For electrophysiological analysis, oocytes were injected with 50 ng in a volume of 50 nl of the respective construct. After injection the oocytes were incubated in ND-96 solution (96 mM NaCl, 2 mM KCl, 1 mM CaCl2, 1 mM MgCl2, 5 mM HEPES, pH 7.4 with NaOH) at 18 °C for 3–5 days until the electrophysiological measurements. The TEVC recordings were performed at room temperature with an Axoclamp 900A amplifier, digitized with a Digidata 1550A at 5 kHz after low-pass filtering at 200 Hz and recorded with Clampex 10.7 (Molecular Devices, San Jose, USA). For recording the microelectrodes were filled with 3 M KCl (resistance 0.8–2.8 MΩ in external solution) and the oocytes were clamped at −70 mV. The external solution was a modified ringer solution containing 100 mM KCl; 10 mM HEPES; 1.8 mM CaCl2; 1 mM MgCl2 (pH 7.4 with KOH) alone or containing agonist.
# (§3) Permeability ratio was calculated by the shift of the reversal potential with the Goldman–Hodgkin–Katz equation under bi-ionic conditions PNa^+/PK^+=expΔErev*F/R*T [27]. The amplitude was measured with KielPatch and also the open probability in bilayer measurements was analyzed by the build in Hinkley-jump-detector of KielPatch (http://www.zbm.uni-kiel.de/aghansen/software.html). Values given represent means ± SEM. Statistical significance was determined at the p < 0.05 (*), p < 0.01 (**), and p < 0.001 (***) levels using a Student’s two-tailed, unpaired two-side t-test or ANOVA (in case of more groups) and a Tukey post-hoc analysis (Prism 7.00). All data are shown as boxplots with a center line representing the median; box limits are the upper and lower quartiles; whiskers representing min and max.
# [2] = biological target: GluATCV* (GluATCV G614S/F615L) (Rattus norvegicus, UniProt P19490, L497Y); details: GluATCV* oocytes; for Glutamate-induced fraction of the Ba^2+-block (IGlu/IBa): fraction of total Ba^2+-sensitive current
# From the text: as §1, §2, §3
# GluATCV*^ΔNTD = GluATCV*^ΔNTD (Rattus norvegicus, UniProt P19490, L497Y); details: GluATCV*^ΔNTD oocytes, saturating glutamate concentrations, n = 5
# From the text: as §1, §2, §3
# [3] = test system: GluATCVlong (GluA1/KcvATCV-1 chimera); test: Two-electrode voltage clamp of GluATCVlong expressing Xenopus oocytes
# From the text: as §1
# cRNAs were synthesized by using the AmpliCap-Max™ T7 High Yield Message Maker Kit of Cellscript (Madison, Wi, USA) with the plasmid linearized by AatII. X. laevis oocytes were used for two electrode voltage-clamp (TEVC) electrophysiology as previously described. Oozytes were surgically obtained from female X. laevis after anesthesia with 0.1% Tricaine in water under the approval of the Technical University of Darmstadt (Agreement V54-19c20/15 DA8/Anz. 20). After the harvest, oocytes were incubated for 1 h in 0.8 mg collagenase in frog ringer [96 mM NaCl, 2 mM KCl, 1 mM CaCl2,1 mM MgCl2, and 5 mM HEPES (pH 7.4 with NaOH)][53]. […] The TEVC recordings were performed at room temperature with an Axoclamp 900A amplifier, digitized with a Digidata 1550A at 5 kHz after low-pass filtering at 200 Hz and recorded with Clampex 10.7 (Molecular Devices, San Jose, USA). […]
# [4] = test system: GluATCVshort (GluA1/KcvATCV-1 chimera); test: Two-electrode voltage clamp of GluATCVshort expressing Xenopus oocytes
# From the text: as §1
# (§4) cRNAs were synthesized by using the AmpliCap-Max™ T7 High Yield Message Maker Kit of Cellscript (Madison, Wi, USA) with the plasmid linearized by AatII. X. laevis oocytes were used for two electrode voltage-clamp (TEVC) electrophysiology as previously described. […] The TEVC recordings were performed at room temperature with an Axoclamp 900A amplifier, digitized with a Digidata 1550A at 5 kHz after low-pass filtering at 200 Hz and recorded with Clampex 10.7 (Molecular Devices, San Jose, USA). […]
# (§5) Permeability ratio was calculated by the shift of the reversal potential with the Goldman–Hodgkin–Katz equation under bi-ionic conditions PNa^+/PK^+=expΔErev*F/R*T [27]. The amplitude was measured with KielPatch and also the open probability in bilayer measurements was analyzed by the build in Hinkley-jump-detector of KielPatch (http://www.zbm.uni-kiel.de/aghansen/software.html). […]
# [5] = biological target: T1, GluA1 glutamate receptor carrying the mutation L479Y (Rattus norvegicus, UniProt P19490, L497Y); test: Two-electrode voltage clamp of GluA1 expressing Xenopus oocytes; details: CNQX IC50, GluA1 (L479Y) oocytes, in the presence of 5 µM glutamate (EC50), n = 5
# T1 construct: expressed in transfected cells; host or cells: Xenopus laevis oocytes (cRNA injection)
# From the text: as §1, §4, §5
# Chain of GluATCV* (GluATCV G614S/F615L) (A7K9J5 entry or part of it G77S/F78L): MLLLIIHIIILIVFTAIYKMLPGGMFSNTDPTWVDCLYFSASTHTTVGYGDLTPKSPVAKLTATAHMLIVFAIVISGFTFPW
# Chain of GluATCV* (GluATCV G614S/F615L) (P19490 other isoform, or with tags, fused parts or gaps L497Y): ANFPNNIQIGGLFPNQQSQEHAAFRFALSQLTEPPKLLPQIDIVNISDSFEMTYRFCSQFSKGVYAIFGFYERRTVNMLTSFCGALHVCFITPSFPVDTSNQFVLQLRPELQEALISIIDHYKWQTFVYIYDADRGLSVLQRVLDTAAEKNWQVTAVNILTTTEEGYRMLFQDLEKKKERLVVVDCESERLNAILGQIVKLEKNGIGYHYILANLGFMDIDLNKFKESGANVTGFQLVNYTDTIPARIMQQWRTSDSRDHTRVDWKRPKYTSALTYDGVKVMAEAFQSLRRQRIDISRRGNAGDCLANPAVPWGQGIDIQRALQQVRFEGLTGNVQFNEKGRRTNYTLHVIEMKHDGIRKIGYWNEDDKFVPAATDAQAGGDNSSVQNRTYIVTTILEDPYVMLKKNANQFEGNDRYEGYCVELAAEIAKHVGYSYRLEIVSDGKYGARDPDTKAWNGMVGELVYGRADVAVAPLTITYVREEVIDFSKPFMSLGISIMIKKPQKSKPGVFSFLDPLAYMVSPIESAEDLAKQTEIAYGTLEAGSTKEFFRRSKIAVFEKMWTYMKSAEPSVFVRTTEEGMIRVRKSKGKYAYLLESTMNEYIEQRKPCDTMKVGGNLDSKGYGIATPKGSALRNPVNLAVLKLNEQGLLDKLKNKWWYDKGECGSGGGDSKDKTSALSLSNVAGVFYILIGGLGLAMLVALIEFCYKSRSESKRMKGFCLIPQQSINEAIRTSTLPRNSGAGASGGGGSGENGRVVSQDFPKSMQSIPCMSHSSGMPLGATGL
# T1 sequence (P19490 19-907 L497Y): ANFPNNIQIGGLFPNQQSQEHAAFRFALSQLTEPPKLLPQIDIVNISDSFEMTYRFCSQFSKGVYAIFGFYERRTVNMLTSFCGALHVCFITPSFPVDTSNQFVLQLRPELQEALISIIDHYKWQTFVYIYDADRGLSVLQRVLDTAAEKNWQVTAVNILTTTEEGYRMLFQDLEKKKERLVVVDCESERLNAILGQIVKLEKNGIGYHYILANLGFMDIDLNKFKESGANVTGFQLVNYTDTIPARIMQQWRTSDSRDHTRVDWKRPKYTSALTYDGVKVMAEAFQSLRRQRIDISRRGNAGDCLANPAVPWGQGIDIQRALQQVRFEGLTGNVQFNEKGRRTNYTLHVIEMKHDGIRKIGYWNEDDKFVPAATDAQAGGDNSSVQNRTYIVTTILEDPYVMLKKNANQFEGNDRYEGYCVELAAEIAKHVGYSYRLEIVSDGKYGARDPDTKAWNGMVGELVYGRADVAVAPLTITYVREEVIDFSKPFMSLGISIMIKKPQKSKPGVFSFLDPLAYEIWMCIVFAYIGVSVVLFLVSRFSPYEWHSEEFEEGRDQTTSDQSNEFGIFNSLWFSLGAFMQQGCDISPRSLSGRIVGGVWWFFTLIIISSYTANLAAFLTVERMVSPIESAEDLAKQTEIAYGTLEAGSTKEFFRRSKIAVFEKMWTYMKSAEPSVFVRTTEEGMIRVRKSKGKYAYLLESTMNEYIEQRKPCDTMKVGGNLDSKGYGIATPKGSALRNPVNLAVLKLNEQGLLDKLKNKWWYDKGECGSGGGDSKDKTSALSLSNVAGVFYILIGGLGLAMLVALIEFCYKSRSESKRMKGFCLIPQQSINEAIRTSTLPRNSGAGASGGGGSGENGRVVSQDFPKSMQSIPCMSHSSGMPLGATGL
# Chain of GluATCV*^ΔNTD (P19490 with tags, fused parts or gaps L497Y): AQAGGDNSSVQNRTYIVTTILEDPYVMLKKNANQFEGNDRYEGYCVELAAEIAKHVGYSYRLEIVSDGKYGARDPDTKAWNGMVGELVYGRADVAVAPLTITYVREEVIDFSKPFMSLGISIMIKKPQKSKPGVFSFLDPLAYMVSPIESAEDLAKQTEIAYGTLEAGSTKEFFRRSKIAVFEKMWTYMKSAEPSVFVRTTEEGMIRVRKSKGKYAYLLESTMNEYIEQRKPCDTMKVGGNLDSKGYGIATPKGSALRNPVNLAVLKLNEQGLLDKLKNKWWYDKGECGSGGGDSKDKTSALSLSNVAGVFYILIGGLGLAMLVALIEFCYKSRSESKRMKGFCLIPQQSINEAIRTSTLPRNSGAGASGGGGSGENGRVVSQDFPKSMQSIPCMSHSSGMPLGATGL
# Chain of GluATCV*^ΔNTD (A7K9J5 1-82 partner): as the sequence (A7K9J5 entry or part of it G77S/F78L) above
compound,measurement,setting,value
"N[C@@H](CCC(=O)O)C(=O)O [glutamate, L-glutamate]",Glutamate-induced fraction of the Ba^2+-block (IGlu/IBa),"[1]; fraction of total Ba^2+-sensitive current, n = 5",36.4 ± 4.6%
same,Glu-elicited current amplitude,"[1]; −70 mV, n = 10",0.4 ± 0.3 µA
same,Glutamate-induced fraction of the Ba^2+-block (IGlu/IBa),[2]; n = 5,68.2 ± 5.2** %
same,Glutamate-induced fraction of the Ba^2+-block (IGlu/IBa),"[2]; n = 5, listed as Glu",68.2 ± 5.2%
same,Glu-inducible current amplitude (IGlu),[2]; n = 5,0.7 ± 0.2 µA
same,Imax,GluATCV*^ΔNTD,1.0 ± 0.26 µA
same,Response to Glu application,[3],remained insensitive
same,Currents in response to glutamate,[4]; 1 mM glutamate,could not elicit any currents
"N#Cc1cc2nc(O)c(O)nc2cc1[N+](=O)[O-] [CNQX, 6-cyano-7-nitroquinoxaline-2,3-dione]",IC50,[5],2200 nM and 2000 nM
[Ba+2] [Ba^2+],Maximal Ba^2+-sensitive currents,[1],1.0 ± 0.3 µA
same,Block of initial leakage and Glu-evoked currents by Ba^2+,[1]; 500 µM Ba^2+,could be blocked
same,Ba^2+-block of the leakage current,"[1]; −70 mV, n = 5",84.4 ± 2.3%
same,Block of glutamate-induced and leakage currents by Ba^2+,[2],could be efficiently blocked
same,Maximal Ba^2+-sensitive currents,[2],0.8 ± 0.2 µA
same,Ba^2+-block of the leakage current,"[2]; −70 mV, n = 5",32.9 ± 10.8*** %
same,Ba^2+-block of the leakage current,"[4]; −70 mV, absence of agonist, 500 µM Ba^2+, n = 5",93.5 ± 1.6%

# From PMC6385376, “Coupling of a viral K^+-channel with a glutamate-binding-domain highlights the modular design of ionotropic glutamate-receptors” (Communications Biology, 2019)
